Data on 1 molecule can be found in patent publication US11491245B2, “Gadolinium chelate compounds for use in magnetic resonance imaging” (BAYER PHARMA AKTIENGESELLSCHAFT, priority 2015, dated 2022).

Data set [1] in a line: Relaxivity measurements at 1.41 T. The data set is classed as physicochemical. The procedure:
Relaxivity measurements at 1.41 T were performed using a MiniSpec mq60 spectrometer (Bruker Analytik, Karlsruhe, Germany) operating at a resonance frequency of 60 MHz and a temperature of 37° C. The T1 relaxation times were determined using the standard inversion recovery (IR) method with a fixed relaxation delay of at least 5×T1. The variable inversion time (TI) was calculated automatically by the standard software of the MiniSpec mq60 (8 steps). The T2 measurements were done by using a Carr-Purcell-Meiboom-Gill (CPMG) pulse sequence, applying a relaxation delay of at least 5×T1.
Each relaxivity measurement was performed using three different Gd concentrations (3 concentrations between 0.05 and 2 mM). The T1 and T2 relaxation times of the example compounds 1-10 were measured in different media for example in water, fetal bovine serum (FBS, Sigma, F7524) and human plasma.
Human plasma preparation: For each experiment fresh blood was taken from a volunteer using 10 mL citrate-tubes (Sarstedt S-Monovette 02.1067.001, 10 mL, Citrate). The 10 mL citrate-tubes were carefully inverted 10 times to mix blood and anticoagulant and centrifuged for 15 minutes at 1811 g at room temperature (Eppendorf, Centrifuge 5810R).
The relaxivities ri (where i=1, 2) were calculated on the basis of the measured relaxation rates Ri in water and plasma: Ri=Ri(0)+ri[CGd], where Ri(0) represent the relaxation rate of the respective solvent and CGd the concentration of the compound normalized to the Gadolinium. The Gadolinium concentrations of the investigated solutions were verified by Inductively Coupled Plasma Mass Spectroscopy (ICP-MS Agilent 7500a, Waldbronn, Germany).

Data set [2] in a line: Contrast-enhanced magnetic resonance angiography (CE-MRA). The data set is classed as in vivo, male New Zealand white rabbits. The following applies: rabbits. The procedure: Reference compound 1 (Gadovist®), as an approved representative of the Gadolinium-based MRI contrast agents, was used in both dose protocols (100 μmol Gd/kg bw and 30 μmol Gd/kg bw) and compared to Example 3 (30 μmol Gd/kg bw).
The contrast-enhanced magnetic resonance angiography study was performed at a clinical 1.5 T Scanner (Magnetom Avanto, Siemens Healthcare, Erlangen, Germany). For optimal signal exploitation, a standard spine coil was used for the data acquisition. The study was done using male New Zealand white rabbits (weight 2.5-2.9 kg, n=6, Charles River Kisslegg). All animals were initially anesthetized using a body weight-adjusted intramuscular injection of a mixture (1+2) of xylazine hydrochloride (20 mg/mL, Rompun 2%, Bayer Vital GmbH, Leverkusen, Germany) and ketamine hydrochloride (100 mg/mL, Ketavet, Pfizer, Pharmacia GmbH, Berlin, Germany) using 1 mL/kg body weight. […]
Based on a localizer sequence oriented in coronal, axial, and sagittal directions, the anatomic course of the aorta was acquired. The time to peak was determined using a small intravenous test bolus (0.25 mL/2.5-2.7 kg or 0.3 mL/2.8-2.9 kg bw, Reference compound 1) and a 3D FLASH sequence (test bolus sequence: repetition time: 36.4 millisecond, echo time 1.45 millisecond, flip angle: 30 degree, spatial resolution: 1.0×0.8×17 mm). […]

Structures are written as SMILES.

Consider `CC(C(=O)NCC(=O)NCC(CNC(=O)CNC(=O)C(C)N1CCN(CC(=O)[O-])CCN(CC(=O)[O-])CCN(CC(=O)[O-])CC1)(CNC(=O)CNC(=O)C(C)N1CCN(CC(=O)[O-])CCN(CC(=O)[O-])CCN(CC(=O)[O-])CC1)CNC(=O)CNC(=O)C(C)N1CCN(CC(=O)[O-])CCN(CC(=O)[O-])CCN(CC(=O)[O-])CC1)N1CCN(CC(=O)[O-])CCN(CC(=O)[O-])CCN(CC(=O)[O-])CC1.[Gd+3].[Gd+3].[Gd+3].[Gd+3]` (stereo not drawn) [Example 3, Tetragadolinium [4,10-bis(carboxylatomethyl)-7-{3,6,12,15-tetraoxo-16-[4,7,10-tris-(carboxylatomethyl)-1,4,7,10-tetraazacyclododecan-1-yl]-9,9-bis({[({2-[4,7,10-tris-(carboxylatomethyl)-1,4,7,10-tetraazacyclododecan-1-yl]propanoyl}amino)acetyl]-amino}methyl)-4,7,11,14-tetraazaheptadecan-2-yl}-1,4,7,10-tetraazacyclododecan-1-yl]acetate], for which the “r1 FBS” value in data set [1] (fetal bovine serum, 1.41 T, 37° C., normalized to Gd) was found to be 11.5 L/mmol/s. The molecule further had a r1 human plasma in data set [1] (human plasma, 1.41 T, 37° C., normalized to Gd) of 11.8 L/mmol/s. Further, in data set [1] (see Example A), the “relaxivity relative to reference compound 1” value is listed as “approximately 2 fold”. For the same molecule, the r1 water in data set [1] (water, 1.41 T, 37° C., normalized to Gd) was found to be 10.1 L/mmol/s. For the same molecule, the “image quality of the low dose protocol” value in data set [2] (30 μmol Gd/kg bw vs 30 μmol Gd/kg bw Reference compound 1, 1.5 T) is “significantly better than the low dose protocol of Reference compound 1”. The “contrast enhancement of the low dose protocol” value in data set [2] (30 μmol Gd/kg bw vs 100 μmol Gd/kg bw Reference compound 1, 1.5 T) was “comparable to that of the standard dose of Reference compound 1”.
